Legend:
[1] = Growth inhibition, sulforhodamine B (SRB) assay, A431; format: cell-based; conditions: human, A431 cervix carcinoma cells, A431, 96 hr incubation, tested as salts, read-out: Cytotoxicity - IC50 A431
Experimental: (§1) Growth inhibition was measured in three human ovarian carcinoma cell lines (A2780, CH1, and SKOV-3) and one human cervix carcinoma cell line (A431) using the sulforhodamine B (SRB) assay. Briefly, between 3000 and 6000 cells were seeded into the wells of 96-well microtiter plates and allowed to attach overnight. Compounds (acid addition and quaternary dimethiodide salts) were dissolved at 500 μM in water and immediately added to wells in quadruplicate at final concentrations of 0.05, 0.25, 1, 5 and 25 μM. Following an incubation period of 96 hr, remaining cells were fixed with ice-cold 10% w/v trichloroacetic acid (30 min) and stained with 0.4% SRB in 1% v/v acetic acid (15 min). Mean absorbance at 540 nm for each drug concentration was expressed as a percentage of the control untreated well absorbance, and IC50 values (concentration required to inhibit cell growth by 50%) were determined for each agent.

[2] = Growth inhibition, sulforhodamine B (SRB) assay, SKOV-3; format: cell-based; conditions: human, SKOV-3 ovarian carcinoma cells, SKOV-3, 96 hr incubation, tested as salts, read-out: Cytotoxicity - IC50 SKOV-3
Experimental: as §1

human telomerase = conditions: as described by Read et al., April 2001; cited from earlier work
telomerase = telomerase (Homo sapiens, UniProt O14746); assay: Modified telomeric repeat amplification protocol (TRAP) assay, cell-free; format: biochemical; conditions: extracts from A2780 cells, tested as salts, read-out: telIC50 (Telomerase Inhibitory Activity)
Chain of telomerase (O14746 whole entry): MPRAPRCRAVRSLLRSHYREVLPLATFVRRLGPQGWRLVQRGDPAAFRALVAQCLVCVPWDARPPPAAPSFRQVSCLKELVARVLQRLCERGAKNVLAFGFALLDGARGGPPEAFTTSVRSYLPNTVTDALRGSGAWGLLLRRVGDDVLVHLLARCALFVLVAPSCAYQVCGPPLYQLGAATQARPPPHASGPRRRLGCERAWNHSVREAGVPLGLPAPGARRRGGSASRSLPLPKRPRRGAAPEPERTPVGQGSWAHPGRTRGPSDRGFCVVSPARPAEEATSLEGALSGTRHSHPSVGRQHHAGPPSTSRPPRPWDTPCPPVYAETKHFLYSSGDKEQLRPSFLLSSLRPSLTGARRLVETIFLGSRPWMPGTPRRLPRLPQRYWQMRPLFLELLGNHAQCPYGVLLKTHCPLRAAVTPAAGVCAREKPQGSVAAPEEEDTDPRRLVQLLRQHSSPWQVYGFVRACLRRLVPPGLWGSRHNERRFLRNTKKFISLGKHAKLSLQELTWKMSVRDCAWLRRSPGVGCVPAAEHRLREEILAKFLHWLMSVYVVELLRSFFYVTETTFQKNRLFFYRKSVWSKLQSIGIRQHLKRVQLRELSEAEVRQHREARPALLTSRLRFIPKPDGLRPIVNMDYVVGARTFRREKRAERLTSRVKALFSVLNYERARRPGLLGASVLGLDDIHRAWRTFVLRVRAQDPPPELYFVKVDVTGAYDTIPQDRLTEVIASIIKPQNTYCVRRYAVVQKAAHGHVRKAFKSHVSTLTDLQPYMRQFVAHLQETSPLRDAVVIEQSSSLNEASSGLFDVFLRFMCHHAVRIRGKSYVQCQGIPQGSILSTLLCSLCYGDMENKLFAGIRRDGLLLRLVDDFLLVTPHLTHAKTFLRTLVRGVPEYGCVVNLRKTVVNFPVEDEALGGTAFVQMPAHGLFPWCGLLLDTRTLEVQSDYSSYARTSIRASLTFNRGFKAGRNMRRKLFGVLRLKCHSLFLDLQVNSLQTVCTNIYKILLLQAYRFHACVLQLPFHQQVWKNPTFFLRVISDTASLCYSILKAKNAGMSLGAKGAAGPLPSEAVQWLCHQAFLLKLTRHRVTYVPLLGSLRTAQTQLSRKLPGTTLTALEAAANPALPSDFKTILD
Experimental: The ability of compounds to inhibit telomerase in a cell-free assay was assessed with a modified TRAP assay using extracts from exponentially growing A2780 human ovarian carcinoma cells. The TRAP assay was performed in 2 steps: (a) telomerase-mediated extension of the forward primer (TS: 5′-AATCCGTCGAGCAGAGTT (SEQ ID NO:3), Oswel Ltd., Southampton, UK) contained in a 40 µL reaction mix comprising TRAP buffer (20 mM Tris-HCl (pH 8.3), 68 mM KCl, 1.5 mM MgCl2, 1 mM EGTA, 0.05% v/v Tween 20), 0.05 μg bovine serum albumin, 50 μM of each deoxynucleotide triphosphate, 0.1 μg TS primer, and 3 μCi of [α-^32P]dCTP (Amersham plc, UK). Protein (40 ng or 20 ng) was then incubated with the reaction mix+agent (acid addition and quaternary dimethiodide salts) at final concentrations of up to 50 μM for 20 min at 25° C. A lysis buffer (no protein) control, heat-inactivated protein control, and 50% protein (20 ng or 10 ng) control were included in each assay; and (b) while heating at 80° C. in a PCR block of a thermal cycler (Hybaid, UK) for 5 min to inactivate telomerase activity, 0.1 μg of reverse CX primer (3′-[…]-5′ (SEQ ID NO:4)) and 2 Units of Taq DNA polymerase (“red hot”, Advanced Biotechnologies) were added. A 3-step PCR was then performed: 94° C. for 30 s, 50° C. for 30 s, and 72° C. for 1 min for 31 cycles. Telomerase-extended PCR products in the presence or absence of compounds were then determined either by electrophoretic separation using 8% w/w acrylamide denaturing gels and analysis by phosphorimaging or autoradiography, or by harvesting on Whatman filters (25 mm glass microfibre) and analysis by liquid scintillation counting.

[3] = Growth inhibition, sulforhodamine B (SRB) assay, A2780; format: cell-based; conditions: human, A2780 ovarian carcinoma cells, A2780, 96 hr incubation, tested as salts, read-out: Cytotoxicity - IC50 A2780
Experimental: as §1

[4] = Growth inhibition, sulforhodamine B (SRB) assay, CH1; format: cell-based; conditions: human, CH1 ovarian carcinoma cells, CH1, 96 hr incubation, tested as salts, read-out: Cytotoxicity - IC50 CH1
Experimental: as §1

Row | SMILES | IC50 at 96 h [1] [µM] | IC50 at 96 h [2] [µM] | in vitro inhibitory activity against human telomerase (human telomerase) | IC50 (telomerase) [µM] | IC50 at 96 h [3] [µM] | IC50 at 96 h [4] [µM]
1 | CN(C)c1ccc(Nc2c3ccc(NC(=O)CCN4CCCC4)cc3nc3cc(NC(=O)CCN4CCCC4)ccc23)cc1 [BR-ACO-19, N-{9-[4′-(N,N-Dimethylamino)phenylamino]}-3,6-bis(3-pyrrolidinopropionamido)acridine] | 15.8 | 13 | potent in vitro inhibitory activity | 0.095 | 10 | 10.1
2 | Nc1ccc(Nc2c3ccc(NC(=O)CCN4CCCC4)cc3nc3cc(NC(=O)CCN4CCCC4)ccc23)cc1 [BR-ACO-20, N-[9-(4′-Aminophenylamino)]-3,6-bis(3-pyrrolidinopropionamido)acridine] | – | > 25 | potent in vitro inhibitory activity | 0.06 | > 25 | > 25
3 | CC(=O)c1ccc(Nc2c3ccc(NC(=O)CCN4CCCC4)cc3nc3cc(NC(=O)CCN4CCCC4)ccc23)cc1 [JH-ACI-90, N-[9-(4′-Acetylphenylamino)]-3,6-bis(3-pyrrolidinopropionamido)acridine] | 2.2 | 3.4 | – | 0.04 | 3.2 | 1.8
4 | CC1(C)CC2CC(C)(CN2CCC(=O)Nc2ccc3c(Nc4ccc(N)cc4)c4ccc(NC(=O)CCN5CC6(C)CC5CC(C)(C)C6)cc4nc3c2)C1 [JH-ACI-101, N-{9-[4′-(Amino)phenylamino]}-3,6-bis[(1,3,3-trimethyl-6-azabicyclo[3.2.1]-octanamino)propionamido]-acridine] | 2.5 | 1.2 | – | 0.16 | 1.6 | 2.3
5 | CN(C)c1ccc(Nc2c3ccc(NC(=O)CCN4CC5(C)CC4CC(C)(C)C5)cc3nc3cc(NC(=O)CCN4CC5(C)CC4CC(C)(C)C5)ccc23)cc1 [JH-ACI-103, N-{9-[4′-(N,N-Dimethylamino)phenylamino]}-3,6-bis[(1,3,3-trimethyl-6-azabicyclo[3.2.1]-octanamino)propionamido]-acridine] | 2.5 | 2 | – | 0.14 | 1 | 3.2
6 | Nc1ccc(Nc2c3ccc(NC(=O)CCN4CCCC4)cc3nc3ccc(NC(=O)CCN4CCCC4)cc23)cc1 [JH-ACI-105, N-{9-[4′-(Amino)phenylamino]}-2,6-bis(3-pyrrolidinopropionamido)acridine] | > 25 | > 25 | – | 0.08 | > 25 | 15.8
7 | CN(C)CCC(=O)Nc1ccc2nc3ccc(NC(=O)CCN(C)C)cc3c(O)c2c1 [JH-ACO-22, 2,7-Bis(3-dimethylaminopropionamido)-9(10H)-acridone] | > 25 | > 25 | – | 1.92 | > 25 | > 25
8 | CN1CCN(CCC(=O)Nc2ccc3[nH]c4ccc(NC(=O)CCN5CCN(C)CC5)cc4c(=O)c3c2)CC1 [JH-ACO-28, 2,7-Bis[3-(4′-N-methyl)piperizinopropionamido]-9(10H)-acridone] | > 25 | > 25 | – | 0.66 | > 25 | > 25
9 | CC1(C)CC2CC(C)(CN2CCC(=O)Nc2ccc3c(=O)c4ccc(NC(=O)CCN5CC6(C)CC5CC(C)(C)C6)cc4[nH]c3c2)C1 [JH-ACO-32, 3,6-Bis[(1,3,3-trimethyl-6-azabicyclo[3.2.1]-octanamino)propionamido]-9(10H)-acridone] | 10 | 2.5 | – | 1.77 | 1.9 | 2.5
10 | O=C(CCN1CCCC1)Nc1ccc2c(NC3CC3)c3ccc(NC(=O)CCN4CCCC4)cc3nc2c1 [JM-ACI-14, N-[9-(Cyclopropylamino)]-3,6-bis(3-pyrrolidinopropionamido)acridine] | > 25 | > 25 | – | 0.05 | 19 | > 25
11 | CC1CCCCN1CCC(=O)Nc1ccc2nc3ccc(NC(=O)CCN4CCCCC4C)cc3c(O)c2c1 (centres unmarked) [JM-ACO-07, 2,7-Bis[3-(2-methylpiperidino)propionamido]-9(10H)-acridone] | > 25 | > 25 | – | 1.97 | > 25 | > 25
12 | O=C(CCN1CCC(O)CC1)Nc1ccc2nc3ccc(NC(=O)CCN4CCC(O)CC4)cc3c(O)c2c1 [JM-ACO-09, 2,7-Bis[3-(4-hydroxypiperidino)propionamido]-9(10H)-acridone] | > 25 | > 25 | – | 1.58 | > 25 | > 25
13 | O=C(CCN1CCCCC1CO)Nc1ccc2[nH]c3ccc(NC(=O)CCN4CCCCC4CO)cc3c(=O)c2c1 (centres unmarked) [JM-ACO-12, 2,7-Bis[3-(2-hydroxymethylpiperidino)propionamido]-9(10H)-acridone] | > 25 | > 25 | – | 2.33 | > 25 | > 25
14 | CN(C)CCNc1c2ccc(NC(=O)CCN3CCCC3)cc2nc2cc(NC(=O)CCN3CCCC3)ccc12 [SB-ACI-11, N-[9-(N,N-Dimethylethylenediamino)]-3,6-bis(3-pyrrolidinopropionamido)acridine] | > 25 | > 25 | – | 0.018 | > 25 | 17
15 | CN1CCCC1CCNc1c2ccc(NC(=O)CCN3CCCC3)cc2nc2cc(NC(=O)CCN3CCCC3)ccc12 (centres unmarked) [SB-ACI-12, N-{9-[2-(2′-Aminoethyl)-1-methylpyrrolidino]}-3,6-bis(3-pyrrolidinopropionamido)acridine] | ≥ 25 | > 25 | – | 0.018 | > 25 | > 25
16 | O=C(CCN1CCCC1)Nc1ccc2c(NCc3cccnc3)c3ccc(NC(=O)CCN4CCCC4)cc3nc2c1 [SB-ACI-13, N-[9-(Pyridin-3′-yl-methylamino)]-3,6-bis(3-pyrrolidinopropionamido)acridine] | > 25 | > 25 | – | 0.066 | > 25 | > 25
17 | CC(=O)Nc1cccc(Nc2c3ccc(NC(=O)CCN4CCCC4)cc3nc3cc(NC(=O)CCN4CCCC4)ccc23)c1 [SB-ACI-14, N-{9-[(3′-Acetamido)aminophenyl]}-3,6-bis(3-pyrrolidinopropionamido)acridine] | > 25 | > 25 | – | 0.1 | > 25 | > 25
